Reference: patent US20260048052A1, “METHODS OF TREATING TENOSYNOVIAL GIANT CELL TUMORS” (Deciphera Pharmaceuticals, LLC, priority 2023, published 2026)
“And” between values parts separate entries of the source, which are not always exact repeats. Equal entries are not always repeated.

Experiments:
[1] = tested on: patients with TGCT; test: Phase 1/2 open-label, multicenter study of vimseltinib in patients with TGCT: efficacy; assay type: in vivo, human; conditions: for Worst stiffness NRS response rate / Worst stiffness NRS response rate, n of responders: Week 25, response = at least a 2-point decrease; for PROMIS-PF response rate / PROMIS-PF response rate, No. of responders: Week 25, response = at least a 3-point increase; for Active ROM response rate / Active ROM response rate, No. of responders: Week 25, response = at least a 10% increase
Protocol: This is a Phase 1/2 open-label, multicenter study evaluating the safety and efficacy of vimseltinib in patients with TGCT. In Phase 1, 32 patients enrolled in three cohorts across multiple doses. In Phase 2, 66 patients enrolled in two cohorts at the recommended Phase 2 dose of 30 mg twice weekly: Cohort A (n=46) in TGCT patients with no prior anti-CSF1/CSF1R therapy (prior therapy with imatinib or nilotinib allowed); and Cohort B (n=20) in TGCT patients with prior anti-CSF1/CSF1R therapy (prior therapy with imatinib or nilotinib alone not eligible). With regards to antitumor activity and treatment duration, 93 patients were evaluable for efficacy by RECIST version 1.1 at the data cutoff date.

[2] = tested on: patients with TGCT; conditions: human, in vivo
Protocol: The safety population includes patients who received at least 1 dose of study drug. Severity was assessed by the investigator according to the toxicity grade described in the National Cancer Institute CTCAE v4.03 (grade 1 [mild] to grade 5 [death]). Time denotes the earliest start date of the worst grade for each TEAE; if the highest grade TEAE occurred in the first 12 months of treatment, lower grade events that occurred after 12 months were not captured in this figure. Key: AST, aspartate aminotransferase; COVID-19, coronavirus disease 2019; CPK, creatine phosphokinase; CTCAE v4.03, Common Terminology Criteria for Adverse Events version 4.03; LDH, lactate dehydrogenase; TEAE, treatment-emergent adverse event.
This is a Phase 1/2 open-label, multicenter study evaluating the safety and efficacy of vimseltinib in patients with TGCT. In Phase 1, 32 patients enrolled in three cohorts across multiple doses. In Phase 2, 66 patients enrolled in two cohorts at the recommended Phase 2 dose of 30 mg twice weekly: Cohort A (n=46) in TGCT patients with no prior anti-CSF1/CSF1R therapy (prior therapy with imatinib or nilotinib allowed); and Cohort B (n=20) in TGCT patients with prior anti-CSF1/CSF1R therapy (prior therapy with imatinib or nilotinib alone not eligible).

[3] = Cohort A, Partial Response per RECIST v1.1 at Week 25 by IRR (n = 17)
[4] = Cohort A, Stable Disease per RECIST v1.1 at Week 25 by IRR (n = 22)
[5] = Cohort B (20 patients), Week 25
[6] = Cohort B, Partial Response per RECIST v1.1 at Week 25 by IRR (n = 5)
[7] = Cohort B, Stable Disease per RECIST v1.1 at Week 25 by IRR (n = 9)
[8] = Phase 2 Cohort A (n = 45), second data cutoff
[9] = Phase 2 Cohort B (n = 13), second data cutoff
[10] = Phase 2 Cohort B (n = 19), second data cutoff

Cc1nc(-c2cnc(NC(C)C)n(C)c2=O)ccc1Oc1ccnc(-c2cnn(C)c2)c1 [Vimseltinib, 2-(isopropylamino)-3-methyl-5-(6-methyl-5-((2-(1-methyl-IH-pyrazol-4-yl)pyridin-4-yl)oxy)pyridin-2-yl)pyrimidin-4(3H)-one]
Worst stiffness NRS at Week 25, mean ([1]; Cohort A (32 patients)): 3.1
PROMIS-PF at Week 25, mean ([1]; Cohort A (35 patients)): 43.9
BPI worst pain response rate ([1]; Cohort A (46 patients), Week 25): (50) %
BPI worst pain response rate, No. of responders ([1]; Cohort A (46 patients), Week 25, 30% or greater decrease without 30% or greater increase in narcotic analgesic use): 23 No.
Average pain responder [1, 3]: 12 (71) No. (%)
Worst pain responder [1, 3]: 10 (59) No. (%)
Average pain responder [1, 4]: 12 (55) No. (%)
Worst pain responder [1, 4]: 12 (55) No. (%)
PROMIS-PF change from baseline, mean ([1]; Cohort A, Week 25): 3.9
Worst stiffness NRS change from baseline, mean ([1]; Cohort A, Week 25): −1.8
Worst stiffness NRS response rate ([1]; Cohort A): (66) %
Worst stiffness NRS response rate, n of responders ([1]; Cohort A): 21 n
PROMIS-PF response rate ([1]; Cohort A): (49) %
PROMIS-PF response rate, No. of responders ([1]; Cohort A): 17 No.
Active ROM response rate ([1]; Cohort A): (42) %
Active ROM response rate, No. of responders ([1]; Cohort A): 19 No.
patients with BPI response for both worst pain and average pain ([1]; Cohort B (11/20), Week 25, ≥30% reduction in pain without ≥30% increase in narcotic analgesic use): 55%
Worst stiffness NRS at Week 25, mean ([1]; Cohort B (14 patients)): 2.6
PROMIS-PF at Week 25, mean ([1]; Cohort B (15 patients)): 49.5
BPI worst pain response rate [1, 5]: (55) %
BPI worst pain response rate, No. of responders [1, 5]: 11 No.
Average pain responder [1, 6]: 2 (40) No. (%)
Worst pain responder [1, 6]: 2 (40) No. (%)
Average pain responder [1, 7]: 7 (78) No. (%)
Worst pain responder [1, 7]: 7 (78) No. (%)
BPI responders among patients with objective responses by RECIST v1.1 ([1]; Cohort B, Week 25): 40%
BPI responders among patients with stable disease ([1]; Cohort B, Week 25): 78%
PROMIS-PF change from baseline, mean ([1]; Cohort B, Week 25): 6.2
Worst stiffness NRS change from baseline, mean ([1]; Cohort B, Week 25): −2.2
patients with clinically meaningful improvements in NRS stiffness ([1]; Cohort B, Week 25): 58%
patients with clinically meaningful improvements in PROMIS-PF ([1]; Cohort B, Week 25): 63%
Worst stiffness NRS response rate ([1]; Cohort B): (71) %
Worst stiffness NRS response rate, n of responders ([1]; Cohort B): 10 n
PROMIS-PF response rate ([1]; Cohort B): (80) %
PROMIS-PF response rate, No. of responders ([1]; Cohort B): 12 No.
Active ROM response rate ([1]; Cohort B): (26) %
Active ROM response rate, No. of responders ([1]; Cohort B): 5 No.
ORR per RECIST v1.1 by IRR ([1]; Phase 1 (n = 32), multiple doses, first data cutoff): 72%
progression as assessed by IRR ([1]; Phase 2, second data cutoff): no patients progressed
Active ROM at Week 25, mean ([1]; Phase 2 Cohort A (33 patients), second data cutoff): 77.8%
ORR per RECIST v1.1 by IRR at Week 25 ([1]; Phase 2 Cohort A (n = 45), 30 mg twice weekly, first data cutoff): 38%
ORR per RECIST v1.1 by IRR ([1]; Phase 2 Cohort A (n = 45), 30 mg twice weekly, no prior anti-CSF1/CSF1R therapy, first data cutoff): 64%
ORR per RECIST v1.1 by IRR [1, 8]: 64%
ORR per RECIST v1.1 by IRR at Week 25 [1, 8]: 38%
ORR per TVS by IRR [1, 8]: 62%
ORR per TVS by IRR at Week 25 [1, 8]: 51%
Active ROM, change from baseline at Week 25, mean (SD) ([1]; Phase 2 Cohort A, second data cutoff): 19.7 (43.5) percentage points and 19.7 percentage points
Active ROM of the affected joint at Week 25, mean (SD) [1, 9]: 65.2 (37.5) % and 65.2%
Active ROM, change from baseline to Week 25, mean (SD) [1, 9]: 14.1 (27.4) percentage points and 14.1 percentage points
ORR per RECIST v1.1 by IRR ([1]; Phase 2 Cohort B (n = 16), 30 mg twice weekly, prior anti-CSF1/CSF1R therapy, first data cutoff): 44%
ORR per RECIST v1.1 by IRR [1, 10]: 37%
ORR per RECIST v1.1 by IRR at Week 25 [1, 10]: 26%
ORR per TVS by IRR [1, 10]: 42%
ORR per TVS by IRR at Week 25 [1, 10]: 26%
symptomatic benefit across secondary efficacy measures (ORR by TVS, active range of motion, physical function, stiffness, pain) ([1]; Phase 2 Cohorts A and B, Week 25): clinically meaningful symptomatic benefit
Active ROM at Week 25: patients with decrease ([1]; Phase 2 cohort A, FIG. 9A): 4 n
Active ROM at Week 25: patients with increase from baseline ([1]; Phase 2 cohort A, FIG. 9A): 23 n
Active ROM at Week 25: patients with no change ([1]; Phase 2 cohort A, FIG. 9A): 5 n
Active ROM at Week 25: patients with decrease ([1]; Phase 2 cohort B, FIG. 9B): 1 n
Active ROM at Week 25: patients with increase from baseline ([1]; Phase 2 cohort B, FIG. 9B): 9 n
Active ROM at Week 25: patients with no change ([1]; Phase 2 cohort B, FIG. 9B): 3 n
Grade 3/4 TEAE eczema [2]: 10%
Grade 3/4 TEAE increased blood CPK [2]: 35%
Grade 3/4 TEAE increased blood creatine phosphokinase (CPK) [2]: 48%
grade of the majority of TEAEs [2]: grade 1 or 2
onset of the majority of the most severe events [2]: ≤ 12 months
tolerability [2]: well-tolerated
tolerability, longer follow-up [2]: continued to be well tolerated with a manageable safety profile
treatment discontinuation due to TEAEs [2]: 9%
